These results are taken from patent US20200232974A1, “LYMPHOCYTES EXPRESSING CD73 IN CANCEROUS PATIENT DICTATES THERAPY” (Centre Léon-Bérard, priority 2016, published 2020).

The test system of data set [1] is CD73+ or CD73neg Tconv. As to the kind of experiment: 4 days' proliferation of purified CD73+ or CD73neg Tconv with anti-CD3/anti-CD28 beads. In kind it is cell-based, human. On the procedure:
Addition of recombinant ADA (rhADA, 1 μg/ml), inducing degradation of Ado into Ino restored both T cell subsets proliferation confirming the immunosuppressive impact of Ado.

The test system of data set [2] is CD73+ Tconv. Briefly: Co-culture of Treg with CD73+ or CD73neg Tconv, with or without exogenous ATP: proliferation (CTV dilution). The conditions noted are these: Treg:Tconv ratio 1/1; round-bottomed wells; anti-CD3/anti-CD28 beads. The class given is cell-based, human. From the text:
To analyze the biological impact of Ado generation by cooperation between CD39^+ Treg and CD73^+ Tconv, we co-cultured Treg labeled with proliferation marker CFSE in presence of CD73^+ or CD73^neg Tconv labeled with Cell Trace Violet (CTV) at a ratio 1/1 in presence or absence of exogenous ATP in round-bottomed wells with compact cell density in presence of anti-CD3/anti-CD28 beads. […] In contrast, CTV-labeled CD73^+ or CD73^neg proliferation that was not altered by the addition of Treg due to the strong activation. […] To mimic physiological conditions, Treg, CD73^+ and CD73^neg Tconv subsets were mixed together at physiological ratio (10%/20%/70%) observed in blood. ATP induced inhibition of the bulk proliferation which can be rescued by the combined addition of CD39 and CD73 inhibitors. The proliferation of each subset was analyzed by specific proliferation markers (CFSE and CTV alone or in combination).

Data set [3] deals with T1, CD73 (Homo sapiens, UniProt P21589).
T1 construct: endogenous in cells
T1 sequence (P21589 27-549): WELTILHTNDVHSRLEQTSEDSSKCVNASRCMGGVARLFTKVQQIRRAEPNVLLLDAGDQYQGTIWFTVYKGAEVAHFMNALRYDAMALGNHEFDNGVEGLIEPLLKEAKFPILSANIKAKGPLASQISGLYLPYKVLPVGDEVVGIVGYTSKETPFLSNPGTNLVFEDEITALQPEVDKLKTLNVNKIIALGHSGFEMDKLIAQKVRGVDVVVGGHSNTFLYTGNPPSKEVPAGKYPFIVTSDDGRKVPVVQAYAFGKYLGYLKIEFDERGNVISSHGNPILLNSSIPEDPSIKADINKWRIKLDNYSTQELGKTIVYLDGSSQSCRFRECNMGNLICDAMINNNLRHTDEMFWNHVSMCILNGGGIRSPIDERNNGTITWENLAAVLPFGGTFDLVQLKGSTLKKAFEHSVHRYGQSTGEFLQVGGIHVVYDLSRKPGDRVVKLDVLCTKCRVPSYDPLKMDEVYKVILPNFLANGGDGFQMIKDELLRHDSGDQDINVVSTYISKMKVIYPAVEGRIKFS
Briefly: Hydrolysis of C13N15 AMP into Ado by CD73+ Tconv (HPLC). The class given is cell-based. On the procedure: To confirm this hypothesis, we quantified, by HPLC, the capacity of Treg to degrade ATP into Ado. To prevent interference with endogenous ATP or metabolites, these experiments were performed with exogenous C13N15 stable isotope ATP. After two hours, Treg purified from HD blood degraded 48.24±6.20% of ATP into AMP without generating neither Ado nor Inosine. […] Moreover, we confirmed that CD73^+ and CD73^neg Tconv were not able to degrade C13N15 ATP.
Using this technique, we confirmed the enzymatic functionality of CD73 on Tconv. Only CD73^+ Tconv were capable of hydrolyzing C13N15 AMP into Ado and this was reversed by addition of a specific CD73 inhibitor (AMPCP).

Data set [4] addresses T2, CD39 (Homo sapiens, UniProt P49961).
T2 construct: Treg purified from HD blood degraded 48.24±6.20% of ATP into AMP; endogenous in cells
T2 sequence (P49961 1-510): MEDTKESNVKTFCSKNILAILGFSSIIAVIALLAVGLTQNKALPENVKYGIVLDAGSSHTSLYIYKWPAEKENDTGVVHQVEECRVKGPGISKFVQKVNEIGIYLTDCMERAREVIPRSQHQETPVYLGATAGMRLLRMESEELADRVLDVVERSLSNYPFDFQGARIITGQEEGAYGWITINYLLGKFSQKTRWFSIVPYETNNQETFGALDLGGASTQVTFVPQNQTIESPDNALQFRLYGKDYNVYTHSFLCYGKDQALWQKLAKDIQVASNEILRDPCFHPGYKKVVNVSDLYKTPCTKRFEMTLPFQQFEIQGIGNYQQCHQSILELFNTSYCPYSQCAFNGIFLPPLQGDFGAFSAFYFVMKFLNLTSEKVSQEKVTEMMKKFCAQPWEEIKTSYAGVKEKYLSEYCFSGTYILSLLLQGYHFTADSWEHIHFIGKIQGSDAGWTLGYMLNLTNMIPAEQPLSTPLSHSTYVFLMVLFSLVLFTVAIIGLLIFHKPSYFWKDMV
Briefly: Degradation of exogenous C13N15 ATP by purified Treg, quantified by HPLC. The class given is cell-based. Particulars: Treg purified from HD blood, two hours. On the procedure:
FIG. 3: Breast and ovarian tumors contain highly functional CD39+ Treg and CD73+ Tconv with Th1/17 characteristics. (A) Representative expression of CD39 and CD73 analyzed on memory CD4+ Treg and Tconv from Breast (B) and ovarian (OT) by flow cytometry. Frequency of CD39+ cells (B) and Δ CD39 MFI on these cells (C) among paired Treg and Tconv were analyzed by flow cytometry among BT and OT and statistical analysis was performed by Two-way Anova analysis. (D) Purified tumor-associated Treg were assessed for ATP (37.5 μM) degradation by HPLC measurements and compared to HD-blood Treg. In some conditions 30 min pre-incubation with ARL67156 (250 μM) was used to assess the role of CD39 functional activity. (E,F) Δ CD39 MFI of CD39+ cells among Treg (E) or Tconv (F) from paired peripheral blood and BT or OT were analyzed. Statistical analysis was performed by using Two-way Anova analysis. (G) Frequency of CD73+ cells among Tconv from BT and OT was analyzed by flow cytometry. Statistical analysis was performed by using Kruskal-Wallis test.
To confirm this hypothesis, we quantified, by HPLC, the capacity of Treg to degrade ATP into Ado. To prevent interference with endogenous ATP or metabolites, these experiments were performed with exogenous C13N15 stable isotope ATP. After two hours, Treg purified from HD blood degraded 48.24±6.20% of ATP into AMP without generating neither Ado nor Inosine. […]

Data set [5] concerns CD73+ or CD73neg Tconv. Briefly: Cytokine secretion of purified Tconv subsets after 2 days of anti-CD3/anti-CD28 bead activation. In kind it is cell-based, human. Particulars: 2 days of activation; addition of Ado. As to the method: Moreover, the impact of Ado and AMP on cytokine secretion capacity was analyzed on both purified Tconv subsets. To avoid a confounding effect of Ado and AMP on proliferation in this analysis we analyzed cytokine secretion after 2 days of activation with anti-CD3/anti-CD28 beads which was determined as the maximal length of activation without induction of any proliferation (CFSE dilution). First, we confirmed that CD73^+ Tconv produced more IL-2, TNF-α, IFN-γ, IL-17A, IL-22, GM-CSF and IL-3 but less IL-10, IL-13 and IL-21 than CD73^neg in this activation setting. As shown previously for the proliferation, the secretion of the cytokines produced by CD73^+ or CD73^neg Tconv was inhibited by the addition of Ado.

Data set [6] deals with T3, MDR1 (Homo sapiens, UniProt P08183).
T3 construct: After staining of HD-PBMC with Rhd123 we analyzed, by flow cytometry, cells endowed with Rhd123 efflux function; endogenous in cells
T3 sequence (P08183 whole entry): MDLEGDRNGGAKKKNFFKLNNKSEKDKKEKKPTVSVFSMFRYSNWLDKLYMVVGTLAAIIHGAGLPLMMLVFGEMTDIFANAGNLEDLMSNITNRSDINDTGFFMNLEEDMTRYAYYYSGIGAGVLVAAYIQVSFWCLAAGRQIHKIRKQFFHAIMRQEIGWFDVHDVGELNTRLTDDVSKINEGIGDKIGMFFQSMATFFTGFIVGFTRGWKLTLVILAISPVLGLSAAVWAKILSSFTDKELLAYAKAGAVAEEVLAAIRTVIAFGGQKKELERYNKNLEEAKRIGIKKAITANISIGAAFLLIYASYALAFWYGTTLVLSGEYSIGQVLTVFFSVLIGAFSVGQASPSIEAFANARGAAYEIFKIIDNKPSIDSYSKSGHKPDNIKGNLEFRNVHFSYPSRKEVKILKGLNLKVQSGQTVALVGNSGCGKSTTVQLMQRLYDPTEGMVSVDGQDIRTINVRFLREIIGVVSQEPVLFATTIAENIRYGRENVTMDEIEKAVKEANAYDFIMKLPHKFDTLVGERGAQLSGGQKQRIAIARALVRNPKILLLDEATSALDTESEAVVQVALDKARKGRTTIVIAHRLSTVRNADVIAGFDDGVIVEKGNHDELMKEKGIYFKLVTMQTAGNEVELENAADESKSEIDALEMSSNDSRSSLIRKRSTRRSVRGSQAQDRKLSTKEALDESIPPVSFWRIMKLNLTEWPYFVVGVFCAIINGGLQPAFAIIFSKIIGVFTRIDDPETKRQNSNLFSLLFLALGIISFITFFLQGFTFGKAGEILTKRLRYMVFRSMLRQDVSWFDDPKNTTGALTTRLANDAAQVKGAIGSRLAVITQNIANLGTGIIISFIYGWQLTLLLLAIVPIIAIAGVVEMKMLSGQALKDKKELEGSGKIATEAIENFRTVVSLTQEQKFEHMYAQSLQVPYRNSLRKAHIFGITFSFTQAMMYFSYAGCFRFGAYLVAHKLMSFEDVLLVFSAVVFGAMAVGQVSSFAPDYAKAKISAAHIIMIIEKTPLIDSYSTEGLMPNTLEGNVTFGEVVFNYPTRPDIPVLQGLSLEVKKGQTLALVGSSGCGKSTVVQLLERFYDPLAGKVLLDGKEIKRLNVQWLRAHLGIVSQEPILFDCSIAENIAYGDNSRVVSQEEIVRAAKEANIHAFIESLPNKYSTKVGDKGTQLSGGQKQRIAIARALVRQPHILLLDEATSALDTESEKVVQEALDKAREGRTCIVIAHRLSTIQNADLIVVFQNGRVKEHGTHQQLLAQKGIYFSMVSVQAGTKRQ
As to the kind of experiment: MDR1 functionality: Rhodamine 123 (Rhd123) efflux by flow cytometry. In kind it is cell-based. Particulars: HD-PBMC stained with Rhd123 (1 μg/ml); Elacridar 1 μM. For orientation: A flow cytometer gives signals particle by particle.
Method: (B, C) MDR1 functionality was assessed on CD73^+ and CD73^neg Tconv by their capacity to exclude Rhd123 (1 μg/ml) analyzed by flow cytometry. […] Frequency of Rhd123^neg cells was analyzed among CD73^+ (black) and CD73^neg (white) Tconv (D). Statistical analysis was performed by using Wilcoxon test.
Moreover, we took advantage of the physiological role of MDR1 in the efflux of specific fluorescent substrate like Rhodamine 123 (Rhd123). After staining of HD-PBMC with Rhd123 we analyzed, by flow cytometry, cells endowed with Rhd123 efflux function.

For data set [7], the system named is PBMC-purified memory CD4+ Tconv. As to the kind of experiment: in vitro. Particulars: 48 h. On the procedure: (§1) Memory CD4^+ Tconv purified from healthy donor PBMC were used. Purified 10^5 CD4^+ Tconv were cultured in 96-round bottomed wells in complete RPMI medium for 48 h in presence of a strong TCR stimulation (expand beads, ratio bead:cell 1:8)+IL-2 (50UI/ml) in absence (medium condition) or in presence of graded doses of Taxol (0.01; 0.1; 1 μM). Viability was analyzed by multiparametric flow cytometry on different cell subsets according to their expression of CD73 and MDR1 (CD73 MDR1, CD73^+MDR1^neg, CD73^negMDR1^+, CD73^negMDR1^neg). Survival was analyzed by multiparametric flow cytometry using Annexin-V and DAPI stainings (both from Becton Dickinson) according to CD73 and MDR1 expression. % of viable cells (Annexin V^neg DAPI^neg) was compared according to the cell subset analyzed.
(§2) Their survival was analyzed by multiparametric flow cytometry using with Annexin-V and DAPI stainings (both from Becton Dickinson) according to CD73 and MDR1 expression. The percentage of viable cells (Annexin V^neg DAPI^neg) was compared according to the cell subset analyzed.

Data set [8] is described as follows: in vitro. Particulars: human. On the procedure:
as §1, §2

Data set [9] has as its system CD73 and TIGIT expression on CD4+ and CD8+ T cells. Briefly: Blood immune-monitoring of metastatic melanoma patients during anti-PD1 treatment (multiparametric flow cytometry). In kind it is in vivo, human. As to the method:
2nd line metastatic melanoma patients treated with anti PD-1 (Nivolumab, 3 mg/kg/i.v, every 2 weeks) were subjected to blood immune-monitoring, by multiparametric flow cytometry analysis, to assess, using specific coupled mAbs against CD73 (APC) and TIGIT (PE), the modulation of expression of both ICP on CD4+ and CD8+ T cells before (inclusion, WO) and during treatment (W2, W12).

Consider `Nc1ncnc2c1ncn2[C@@H]1O[C@H](COP(=O)(O)CP(=O)(O)O)[C@@H](O)[C@H]1O` [AMPCP], for which the “effect on AMP-induced inhibition of CD73+ Tconv proliferation” value in data set [1] (added with AMP (150 μM final concentration)) was “reversion of inhibition”. In addition, the “effect on inhibition of CD73+ Tconv proliferation induced by Treg and ATP” value in data set [2] is given as “reversed”. In addition, in data set [3], the “effect on hydrolysis of C13N15 AMP into Ado by CD73+ Tconv” value is recorded as “reversed”.
As for `Nc1ncnc2c1ncn2[C@@H]1O[C@H](COP(=O)(O)O)[C@@H](O)[C@H]1O` [AMP], the “effect on proliferation of CD73+ Tconv” value in data set [1] (metronomic addition, 150 μM final concentration, 4 days) is recorded as “inhibited”.
On to `CCN(CC)c1ncnc2c1ncn2[C@@H]1O[C@H](COP(=O)(O)OP(=O)(O)C(Br)(Br)P(=O)(O)O)[C@@H](O)[C@H]1O` [ARL67156], for which the “effect on degradation of ATP into AMP by Treg” value in data set [4] is given as “completely inhibited”.
Regarding `Nc1ncnc2c1ncn2[C@@H]1O[C@H](CO)[C@@H](O)[C@H]1O` [Ado, adenosine], the “effect on proliferation of both subsets (CD73+ and CD73neg Tconv)” value in data set [1] (metronomic addition 75 μM/day, 300 μM final concentration, 4 days) is reported as “inhibited”. In [5], the “effect on IL-17A secretion by Tconv CD73+ (or CD73neg)” value is reported as “not altered”, the “effect on IL-22 secretion” value is “slightly inhibited” and the “effect on secretion of the cytokines produced by CD73+ or CD73neg Tconv” value was “inhibited”.
Turning to `COc1cc2c(cc1OC)CN(CCc1ccc(NC(=O)c3cccc4c(=O)c5cccc(OC)c5[nH]c34)cc1)CC2` [Elacridar], the “effect on Rhd123 efflux by Tconv” value in data set [6] is recorded as “completely abrogated”.
By viability is commonly meant a per cent measure of how many cells are alive, often set against a control. The low end stands for a greater loss of cells, the high end for better survival. As to `CC(=O)O[C@H]1C(=O)[C@@]2(C)[C@H]([C@H](OC(=O)c3ccccc3)[C@]3(O)C[C@H](OC(=O)[C@H](O)[C@@H](NC(=O)c4ccccc4)c4ccccc4)C(C)=C1C3(C)C)[C@]1(OC(C)=O)CO[C@@H]1C[C@@H]2O` [Taxol], the “sensitivity to Taxol-induced apoptosis” value in data set [7] (CD73+MDR1neg subset, high Taxol doses) is listed as “sensitive to apoptosis”; in [7] (CD73negMDR1neg population), “highly sensitive”. This molecule yielded a viability at 48 h, 1 µM in data set [8] of 80%.
Regarding “Nivolumab: anti PD-1 antibody given to metastatic melanoma patients”, in data set [9] (11 patients, 3 mg/kg i.v. every 2 weeks, before (W0) and during treatment (W2, W12)), the “modulation of CD73 expression on CD4+ or CD8+ T cells” value is reported as “No significant modulation”. For the same molecule, in [9] (between W0 and W2, representative dot plot), the “modulation of TIGIT expression” value is “increased”.

B1: rhADA: recombinant Adenosine Deaminase, inducing degradation of Ado into Ino (protein, UniProt P00813 2-363, looked up)
Adenosine deaminase: AQTPAFDKPKVELHVHLDGSIKPETILYYGRRRGIALPANTAEGLLNVIGMDKPLTLPDFLAKFDYYMPAIAGCREAIKRIAYEFVEMKAKEGVVYVEVRYSPHLLANSKVEPIPWNQAEGDLTPDEVVALVGQGLQEGERDFGVKARSILCCMRHQPNWSPKVVELCKKYQQQTVVAIDLAGDETIPGSSLLPGHVQAYQEAVKSGIHRTVHAGEVGSAEVVKEAVDILKTERLGHGYHTLEDQALYNRLRQENMHFEICPWSSYLTGAWKPDTEHAVIRLKNDQANYSLNTDDPLIFKSTLDTDYQMTKRDMGFTEEEFKRLNINAAKSSFLPEDEKRELLDLLYKAYGMPPSASAGQNL
Consider B1, for which the “effect on Ado-inhibited proliferation of both T cell subsets” value in data set [1] (rhADA 1 μg/ml added with exogenous Ado) was “restored”.
